Results: US20170015649A1, “N-Thio-anthranilamid compounds and their use as pesticides” (BASF SE, priority 2005, published 2017)

Legend:
[1] = tested on: Oat Aphid (Rhopalosiphum padi); experiment: Activity against oat aphid, barley leaf disks; assay type: in vivo; details: 2500 ppm; leaf disks sprayed with 2.5 μl; 5 days; compared to 0% mortality of untreated controls
Experimental: Barlay leaf disk were placed into microtiterplates filled with 0.8% agar-agar and 2.5 ppm OPUS™. The leaf disks were sprayed with 2.5 μl of the test solution and 3 to 8 adult aphids were placed into the microtiterplates which were then closed and kept at 22-24° C. and 35-45% humidity under fluorescent light for 5 days. Mortality was assessed on the basis of vital aphids. Tests were replicated 2 times.

[2] = tested on: Silverleaf Whitefly (Bemisia argentifolii); experiment: Activity against silverleaf whitefly, cotton cotyledon dip; assay type: in vivo; details: 72 h, cotyledons dipped, adults, 3 days after treatment
Experimental: (§1) The active compounds were formulated in 50:50 acetone:water and 100 ppm Kinetic™ surfactant.
Selected cotton plants were grown to the cotyledon state (one plant per pot). The cotyledons were dipped into the test solution to provide complete coverage of the foliage and placed in a well-vented area to dry. Each pot with treated seedling was placed in a plastic cup and 10 to 12 whitefly adults (approximately 3-5 day old) were introduced. The insects were collected using an aspirator and an 0.6 cm, non-toxic Tygon™ tubing (R-3603) connected to a barrier pipette tip. The tip, containing the collected insects, was then gently inserted into the soil containing the treated plant, allowing insects to crawl out of the tip to reach the foliage for feeding. The cups were covered with a reusable screened lid (150 micron mesh polyester screen PeCap from Tetko Inc). Test plants were maintained in the holding room at about 25° C. and 20-40% relative humidity for 3 days avoiding direct exposure to the fluorescent light (24 hour photoperiod) to prevent trapping of heat inside the cup. Mortality was assessed 3 days after treatment of the plants.

[3] = tested on: Vetch Aphid (Megoura viciae); experiment: Activity against vetch aphid, bean leaf disks; assay type: in vivo; details: foliar, 144 h, 2500 ppm, leaf disks sprayed with 2.5 μl, 6 days, compared to 0% mortality of untreated controls, read-out: mortality
Experimental: Bean leaf disks were placed into microtiterplates filled with 0.8% agar-agar and 2.5 ppm OPUS™. The leaf disks were sprayed with 2.5 μl of the test solution and 5 to 8 adult aphids were placed into the microtiterplates which were then closed and kept at 22-24° C. and 35-45% under fluorescent light for 6 days. Mortality was assessed on the basis of vital, reproduced aphids. Tests were replicated 2 times.

[4] = tested on: Yellowfever Mosquito (Aedes aegyptii); experiment: Activity via glass contact; assay type: in vivo
Source text: 10. Activity Against Argentine Ant (Linepithema humile), Harvester Ant (Pogonomyrmex Californicus), Acrobat Ant (Crematogaster Spp.), Carpenter Ant (Camponotus floridanus), Fire Ant (Solenopsis invicta), House Fly (Musca domestica), Stable Fly (Stomoxys calcitrans), Flesh Fly (Sarcophaga sp.), Yellowfever Mosquito (Aedes aegyptii), House Mosquito (Culex quinquefasciatus), Malaria Mosquito (Anopheles albimanus), German Cockroach (Blattella Germanica), Cat Flea (Ctenocephalides felis), and Brown Dog Tick (Rhipicephalus sanguineus) Via Glass Contact
Glass vials were treated with 0.5 ml of a solution of active ingredient in acetone and allowed to dry. Insects or ticks were placed into each vial together with some food and moisture supply.

[5] = tested on: Southern Armyworm (Spodoptera eridania), 2nd Instar Larvae; experiment: whole plant or invertebrate; assay type: in vivo; details: in Phaseolus lunatus, foliar, 120 h, 300 ppm, leaf dipped, at 5 days, read-out: mortality
Experimental: The active compounds were formulated for testing the activity against insects and arachnids as a 10.000 ppm solution in a mixture of 35% acetone and water, which was diluted with water, if needed.
A Sieva lima bean leaf was dipped in the test solution and allowed to dry. The leaf was then placed in a petri dish containing a filter paper on the bottom and ten 2nd instar caterpillars. At 5 days, observations are made of mortality and reduced feeding.

[6] = tested on: Yellowfever Mosquito (Aedes aegyptii) Larvae; experiment: Activity against mosquito larvae via water treatment; assay type: in vivo; details: 10 ppm, water treatment, 4th-instar larvae, read-out: mortality of yellowfever mosquito
Experimental: 11. Activity Against Yellowfever Mosquito (Aedes aegyptii), House Mosquito (Culex quinquefasciatus) and Malaria Mosquito (Anopheles albimanus) Larvae Via Water Treatment
Well plates were used as test arenas. The active ingredient was dissolved in acetone and diluted with water to obtain the concentrations needed. The final solutions containing appr. 1% acetone were placed into each well. Approximately 10 mosquito larvae (4th-instars) in 1 ml water were added to each well. Larvae were fed one drop of liver powder each day. The dishes were covered and maintained at 22° C. Mortality was recorded daily and dead larvae and live or dead pupae were removed daily. At the end of the test remaining live larvae were recorded and percent mortality was calculated.

[7] = tested on: Tobacco Budworm (Heliothis virescens); experiment: whole plant or invertebrate; details: 144 h
[8] = tested on: Boll Weevil (Anthonomus grandis); experiment: Activity against boll weevil, eggs in microtiterplates; assay type: in vivo; details: eggs sprayed with 20 μl test solution, 3 to 5 days
Experimental: 10 to 15 eggs were placed into microtiterplates filled with 2% agar-agar in water and 300 ppm formaline. […] Mortality was assessed on the basis of the remaining unhatched eggs or larvae on the agar surface and/or quantity and depth of the digging channels caused by the hatched larvae. Tests were replicated 2 times.

[9] = tested on: Cotton Aphid (Aphis gossypii); experiment: Activity against cotton aphid, cotton cotyledon dip; assay type: in vivo; details: 120 h, cotyledons dipped, after 5 days
Source text: as §1
Cotton plants at the cotyledon stage (one plant per pot) were infested by placing a heavily infested leaf from the main colony on top of each cotyledon. The aphids were allowed to transfer to the host plant overnight, and the leaf used to transfer the aphids was removed. The cotyledons were dipped in the test solution and allowed to dry. After 5 days, mortality counts were made.

[10] = tested on: Diamond Back Moth (Plutella xylostella); experiment: Activity against diamond back moth, cabbage leaf disk dip; assay type: in vivo; details: foliar, 300 ppm, leaf disk dipped, third instar larvae, after 72 h, read-out: mortality
Experimental: The active compounds were formulated in 50:50 acetone:water and 0.1% (vol/vol) Alkamuls EL 620 surfactant. A 6 cm leaf disk of cabbage leaves was dipped in the test solution for 3 seconds and allowed to air dry in a Petri plate lined with moist filter paper. The leaf disk was inoculated with 10 third instar larvae and kept at 25-27° C. and 50-60% humidity for 3 days. Mortality was assessed after 72 h of treatment.

Row | SMILES | mortality [1] | mortality at 300 ppm [2] | mortality at 2500 ppm [3] | mortality at 10 ppm [4] | mortality at 300 ppm [5] | mortality at 10 ppm [6] | mortality at 2500 ppm [7] | mortality at 2500 ppm [8] | mortality at 300 ppm [9] | mortality at 300 ppm [10]
1 | Cc1cc(Cl)cc(C(=O)N=S(C(C)C)C(C)C)c1NC(=O)c1cc(C(F)(F)F)nn1-c1ncccc1Cl [I.3-1] | over 75% | – | – | – | – | – | – | – | – | –
2 | Cc1cc(Cl)cc(C(=O)N=S(C)C)c1NC(=O)c1cc(Br)nn1-c1ncccc1Cl [I.3-4] | – | > 90% | > 75% | > 70% | > 75% | > 70% | > 75% | > 75% | > 50% | –
3 | Cc1cccc(C(=O)N=S(C)C)c1NC(=O)c1cc(Br)nn1-c1ncccc1Cl [I.3-7] | – | – | > 75% | – | > 75% | > 70% | > 75% | > 75% | > 50% | > 75%
